This is an account of results in ChEMBL document CHEMBL1201862, “PubChem BioAssay data set” (2004).

Test systems include PC-3; SF-268; UACC-62; HCT-116; MDA-MB-435; NCI-H460; EKVX; SN12C; SF-295; Hs-578T; SK-MEL-28; LOX IMVI; KM12; SR; UO-31; U-251; A498; HOP-62; NCI-H226.
Test in all cases: NCI tumour cell line growth inhibition, 48 h

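48-hour exposure; five concentrations; linearly interpolated endpoints. GI50 = concentration required for 50% inhibition of growth.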 Calls of active or inactive are those of the source. Rule as the data show it: active = GI50 up to about 1.1 µM and inactive = higher.

`O=C1c2ccccc2-c2cc3ccccc3c(=O)n21`: the GI50 with PC-3, in the assay on SF-268, in the assay with UACC-62, in the assay with HCT-116, with MDA-MB-435 and with NCI-H460 was > 100 µM (inactive) in each case. In addition, the GI50 in the assay on EKVX, with SN12C, with SF-295, with Hs-578T, with SK-MEL-28 and with LOX IMVI was > 100 µM (inactive) throughout. Also, the GI50 was > 100 µM (inactive) in the assay with KM12, > 100 µM (inactive) in the assay on SR and 49.1 µM (inactive) with UO-31.

`CC1=NN(C(=O)c2ccccc2O)C(=O)/C1=C/c1cccc([N+](=O)[O-])c1`: the GI50 in the assay with U-251 was 0.512 µM (active); in the assay on PC-3, 7.06 µM (inactive); in the assay on SF-268, 1.25 µM (inactive); in the assay with UACC-62 it was 0.408 µM (active); in the assay on A498, 0.164 µM (active); in the assay with HCT-116, 0.463 µM (active). Also, the GI50 with MDA-MB-435 is 0.451 µM (active); in the assay on NCI-H460, 0.658 µM (active); in the assay on EKVX, 3.99 µM (inactive); in the assay on HOP-62, 1.23 µM (inactive); in the assay on SN12C, 3.01 µM (inactive); in the assay with SF-295, 0.507 µM (active). Also, the GI50 in the assay on SK-MEL-28 was > 49.7 µM (inactive); in the assay on NCI-H226, 0.274 µM (active); in the assay on LOX IMVI it was 0.695 µM (active); in the assay on KM12 it was 0.703 µM (active); in the assay on SR, > 100 µM (inactive); in the assay on UO-31, 0.596 µM (active).

With `COC(=O)/C(=N\NC(N)=S)C(C(=O)OC)C(=O)C(=O)Nc1ccc(C)cc1` (stereo unspecified), the GI50 in the assay on U-251, in the assay on SF-268, with UACC-62, in the assay on A498, in the assay with HCT-116 and in the assay with NCI-H460 was > 100 µM (inactive) throughout. Besides, the GI50 in the assay on EKVX, in the assay with HOP-62, in the assay on SN12C, in the assay with SF-295, in the assay with SK-MEL-28 and with NCI-H226 was > 100 µM (inactive) each time. Also, the GI50 with LOX IMVI, with KM12, in the assay on SR and with UO-31 was > 100 µM (inactive) throughout.

Consider `CC(=O)C1=CSC2[C@H](NC(=O)Cc3ccccc3)C(=O)N2C1C(=O)OC(c1ccccc1)c1ccccc1` (stereo partly specified), for which the GI50 with SF-268 is 47.6 µM (inactive); in the assay on UACC-62, 30.1 µM (inactive); in the assay on A498, > 100 µM (inactive); with HCT-116 it was > 100 µM (inactive); with EKVX, > 100 µM (inactive); in the assay with HOP-62, 58.6 µM (inactive). Moreover, the GI50 in the assay on SN12C was > 100 µM (inactive); in the assay on SF-295 it was 40.7 µM (inactive); in the assay with SK-MEL-28, > 100 µM (inactive); with NCI-H226 it was > 100 µM (inactive); in the assay with KM12, > 100 µM (inactive); with SR it was 36.7 µM (inactive). Also, the GI50 in the assay on UO-31 is > 100 µM (inactive).

Regarding `COc1ccc(C2=NN(C(=O)c3ccc(Cl)cc3)C(O)(c3cc(F)c(Cl)cc3Cl)C2)cc1OC` (stereo unspecified), the GI50 is 19.2 µM (inactive) in the assay with U-251; 6.44 µM (inactive) with PC-3; 21.2 µM (inactive) in the assay on SF-268; 5.2 µM (inactive) in the assay on A498; 6.14 µM (inactive) in the assay with HCT-116; 13.2 µM (inactive) in the assay on MDA-MB-435. Moreover, the GI50 is 9.14 µM (inactive) with NCI-H460; 27.7 µM (inactive) in the assay with EKVX; 99.8 µM (inactive) in the assay on HOP-62; 26 µM (inactive) in the assay with SF-295; 24 µM (inactive) with Hs-578T; > 100 µM (inactive) in the assay with SK-MEL-28. In addition, the GI50 is > 100 µM (inactive) in the assay on NCI-H226, 37.9 µM (inactive) in the assay on LOX IMVI, 8.15 µM (inactive) in the assay on KM12 and 3.08 µM (inactive) with UO-31.

As for `CC(=O)NNc1nc(C)c(C(/C=C/c2ccc(Cl)cc2)=N/NC(=S)NN)s1`, the GI50 in the assay on U-251, with SF-268, in the assay with UACC-62, in the assay with A498, in the assay on HCT-116 and in the assay on NCI-H460 was > 100 µM (inactive) throughout. The GI50 with EKVX, in the assay on HOP-62, in the assay with SN12C, with SF-295, in the assay with SK-MEL-28 and in the assay with NCI-H226 was > 100 µM (inactive) each time. In addition, the GI50 with LOX IMVI, in the assay with KM12, in the assay on SR and with UO-31 was > 100 µM (inactive) throughout.

Turning to `CC(C)=CC(=O)Cc1nc2cc(C)c(C)cc2[nH]c1=O`, the GI50 with U-251 is > 100 µM (inactive); in the assay on SF-268, 99.3 µM (inactive); in the assay with UACC-62, > 100 µM (inactive); with A498, > 100 µM (inactive); with HCT-116, > 100 µM (inactive); in the assay on NCI-H460 it was > 100 µM (inactive). Moreover, the GI50 was 9.89 µM (inactive) in the assay on EKVX; 17.9 µM (inactive) in the assay on HOP-62; > 100 µM (inactive) in the assay on SN12C; 90.4 µM (inactive) in the assay on SF-295; > 100 µM (inactive) in the assay on SK-MEL-28; > 100 µM (inactive) in the assay on NCI-H226. The GI50 in the assay with LOX IMVI is > 100 µM (inactive); in the assay on KM12, > 100 µM (inactive); in the assay on SR, > 100 µM (inactive); in the assay with UO-31 it was 75 µM (inactive).

Regarding `Nc1ncc2c(n1)-c1ccccc1OC2N1CCOCC1` (stereo unspecified), the GI50 in the assay with U-251, in the assay with PC-3, in the assay on SF-268, in the assay on UACC-62, in the assay on HCT-116 and in the assay on MDA-MB-435 was > 100 µM (inactive) throughout. Also, the GI50 in the assay with NCI-H460 was > 100 µM (inactive); in the assay with EKVX, 85.9 µM (inactive); with HOP-62 it was > 100 µM (inactive); with SN12C, > 100 µM (inactive); with SF-295, > 100 µM (inactive); in the assay on Hs-578T it was > 100 µM (inactive). Besides, the GI50 was > 100 µM (inactive) with SK-MEL-28; > 100 µM (inactive) in the assay on NCI-H226; > 100 µM (inactive) in the assay with LOX IMVI; > 100 µM (inactive) with KM12; 52.7 µM (inactive) with SR; > 100 µM (inactive) with UO-31.

Consider `CCOC(=O)Cn1c(=O)n(C)c(=O)c2c1ncn2Cc1ccccc1`, for which the GI50 with U-251, in the assay with SF-268, in the assay on UACC-62, in the assay with A498, with HCT-116 and with NCI-H460 was > 100 µM (inactive) each time. Further, the GI50 with EKVX, in the assay on HOP-62, in the assay with SN12C, with SK-MEL-28, with NCI-H226 and with KM12 was > 100 µM (inactive) in each case. Besides, the GI50 with SR and in the assay on UO-31 was > 100 µM (inactive) throughout.

As for `CCOC(=O)NC(=O)c1cn(CCN2CCN(C(=O)CCCCCCCCCCNc3ncnc4c3ncn4C3OC(CO)C(O)C3O)CC2)c(=O)[nH]c1=O` (stereo unspecified), the GI50 with U-251, in the assay with SF-268, with UACC-62, with A498, in the assay on HCT-116 and in the assay on NCI-H460 was > 100 µM (inactive) throughout. The GI50 with HOP-62, with SN12C, with SF-295, in the assay on SK-MEL-28, in the assay on LOX IMVI and in the assay with KM12 was > 100 µM (inactive) in each case. Also, the GI50 with SR and with UO-31 was > 100 µM (inactive) in each case.

With `CCOC(=O)C(/C(=N/NC(=O)OC)C(=O)Nc1ccc(C(C)=O)cc1)c1cnc2ccccc2n1` (stereo unspecified), the GI50 with U-251, with SF-268, in the assay with UACC-62, with A498, with HCT-116 and in the assay on NCI-H460 was > 100 µM (inactive) in each case. The GI50 in the assay on EKVX, with HOP-62, in the assay with SN12C, with SF-295, in the assay on SK-MEL-28 and in the assay on NCI-H226 was > 100 µM (inactive) each time. The GI50 in the assay on LOX IMVI, with KM12, in the assay with SR and with UO-31 was > 100 µM (inactive) throughout.

Regarding `OCCCCn1cnc2c(O)ncnc21`, the GI50 with SF-268, in the assay on UACC-62, with A498, in the assay on HCT-116, with NCI-H460 and in the assay on EKVX was > 100 µM (inactive) each time. For the same compound, the GI50 in the assay with HOP-62, in the assay with SN12C, in the assay on SF-295, in the assay with SK-MEL-28, with NCI-H226 and with LOX IMVI was > 100 µM (inactive) throughout. The GI50 in the assay with KM12, in the assay on SR and in the assay on UO-31 was > 100 µM (inactive) throughout.

In the case of `CC[C@H]1C[C@@H](O)[C@@H]2[C@H](O)[C@H](O)CN2C1`, the GI50 in the assay on U-251, in the assay with PC-3, with SF-268, in the assay on HCT-116, in the assay with MDA-MB-435 and in the assay with NCI-H460 was > 100 µM (inactive) each time. In addition, the GI50 with EKVX, in the assay on SN12C, in the assay on SF-295, with Hs-578T, in the assay on SK-MEL-28 and in the assay on NCI-H226 was > 100 µM (inactive) in each case. Moreover, the GI50 in the assay on LOX IMVI and in the assay on KM12 was > 100 µM (inactive) in each case.
